Where a chain is given by its changes, count along the chain named. Counter-ions that a name gives are not always drawn. Like-named read-outs stand apart in the source and are kept apart here.
Experiments:
[1] = protein unbound fraction; ref literature; cited from earlier work
OATP1B1 [2] = target: T1, OATP1B1 (Homo sapiens, UniProt Q9Y6L6); assay: Prediction of clinical drug-drug interactions; settings: for R (CER): cerivastatin as substrate; for Iin,max: Fa 1, Ka 0.1/min, Qh 1500 ml/min
T1 sequence (Q9Y6L6 1-691): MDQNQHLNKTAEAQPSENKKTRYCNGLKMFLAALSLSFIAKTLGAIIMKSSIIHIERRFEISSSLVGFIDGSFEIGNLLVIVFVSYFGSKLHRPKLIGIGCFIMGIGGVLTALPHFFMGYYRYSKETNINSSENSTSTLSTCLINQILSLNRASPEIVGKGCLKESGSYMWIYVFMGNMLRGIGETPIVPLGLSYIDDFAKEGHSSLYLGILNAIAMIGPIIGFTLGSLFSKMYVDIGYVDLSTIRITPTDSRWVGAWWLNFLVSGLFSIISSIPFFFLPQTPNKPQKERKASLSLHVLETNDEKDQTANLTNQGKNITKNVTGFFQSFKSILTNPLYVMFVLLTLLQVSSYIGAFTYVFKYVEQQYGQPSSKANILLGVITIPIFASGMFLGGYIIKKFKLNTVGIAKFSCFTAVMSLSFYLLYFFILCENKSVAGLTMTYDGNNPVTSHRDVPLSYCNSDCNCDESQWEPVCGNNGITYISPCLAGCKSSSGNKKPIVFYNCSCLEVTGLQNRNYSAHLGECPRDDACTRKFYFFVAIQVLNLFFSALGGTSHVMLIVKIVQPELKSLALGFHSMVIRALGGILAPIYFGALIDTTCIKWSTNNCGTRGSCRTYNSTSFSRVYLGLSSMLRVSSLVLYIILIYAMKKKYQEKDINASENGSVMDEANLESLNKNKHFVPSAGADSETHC

[3] = cited from earlier work
OATP1B1 [4] = target: T1, OATP1B1
OATP1B1 [5] = target: T1, OATP1B1; remark: listed apart in the source
[6] = tested on: HEK293/FRT cells, empty vector; assay: Uptake by HEK293/FRT cells with empty vector; assay type: cell-based, human
OATP1B1 reference = target: T2, OATP1B1 reference (Homo sapiens, UniProt Q9Y6L6); settings: 20 nmol/l [3H]-ES, 5 min, 37°C
T2 sequence (Q9Y6L6 1-691): T1 sequence (Q9Y6L6 1-691)

OATP1B1*15 = target: T3, OATP1B1*15 (Homo sapiens, UniProt Q9Y6L6, N130D/V174A); settings: 20 nmol/l [3H]-ES
T3 sequence (Q9Y6L6 1-691 N130D/V174A): T1 sequence (Q9Y6L6 1-691) with N130D, V174A

OATP1B1 T345M = target: T4, OATP1B1 T345M (Homo sapiens, UniProt Q9Y6L6, T345M); settings: 20 nmol/l [3H]-ES
T4 sequence (Q9Y6L6 1-691 T345M): T1 sequence (Q9Y6L6 1-691) with T345M

[7] = tested on: cerivastatin-induced rhabdomyolysis; settings: cited from earlier work
OATP1B1 FS (974insGT) = settings: 5 nmol/l [3H]-CER; frameshift insertion
SLCO1B1 521T>C = SLCO1B1 521T>C polymorphism; cited from earlier work
[8] = 5 nmol/l [3H]-CER, concentrations up to 100 µmol/l
[9] = 20 nmol/l [3H]-ES, concentrations up to 100 µmol/l
[10] = R=1+fu×Iin,max/IC50, ES as substrate, oral dose listed per drug in Table 3
[11] = at the oral dose listed per drug in Table 3 (clopidogrel 75 mg)
[12] = concentrations up to 3 µmol/l, limited by solubility

SMILES | IC50 (OATP1B1 [4]) | Inhibition of OATP1B1-mediated uptake of cerivastatin (in words) (OATP1B1 [4]; [8]) | IC50 (OATP1B1 [5]) | Inhibition of OATP1B1-mediated uptake of ES (in words) (OATP1B1 [5]; [9]) | other results
COc1ccc(Cl)cc1C(=O)NCCc1ccc(S(=O)(=O)NC(=O)NC2CCCCC2)cc1 [Glyburide, glyburide] |  |  |  |  | fu [1]: 0.002
COC(=O)[C@H](c1ccccc1Cl)N1CCC2SC(=O)C=C2C1 (some centres unmarked) [2-Oxo clopidogrel, 2-oxo clopidogrel] | 8.18 µM | inhibited | 8.97 µM | inhibited | R (ES) (OATP1B1 [2]; ES as substrate, clopidogrel oral dose 600 mg): 1.26; R (CER) (OATP1B1 [2]; clopidogrel oral dose 600 mg): 1.29; Iin,max (OATP1B1 [2]; clopidogrel oral dose 600 mg): 118.69 µmol/L; fu [1]: 0.02; Cmax ([3]; clopidogrel oral dose 600 mg): 0.05 ng/mL
C[C@]12CC[C@@H]3c4ccc(OS(=O)(=O)O)cc4CC[C@H]3[C@@H]1CCC2=O [ES, [^3H]-Estrone-3-sulfate ammonium salt] |  |  |  |  | ES transport rate ([6]; 20 nmol/l [3H]-ES): 0.01±0.006 pmol/mg of protein/min; ES transport rate (OATP1B1 reference): 0.2±0.01 pmol/mg of protein/min; Decrease in ES transport vs reference (OATP1B1*15): 66%; ES uptake, fraction of reference (OATP1B1 T345M): 0.43±0.07 of reference
CS(=O)(=O)c1ccc(C2=C(c3ccccc3)C(=O)OC2)cc1 [Rofecoxib, rofecoxib] | 1.17 µM | inhibited | 5.65 µM | inhibited | R (ES) (OATP1B1 [2]; [10]): 1.15; Cmax [3, 11]: 320 ng/mL
N[C@@H](Cc1cc(I)c(Oc2cc(I)c(O)c(I)c2)c(I)c1)C(=O)O [Levothyroxine, levothyroxine] | 0.88 µM | inhibited | 2.04 µM | inhibited | R (ES) (OATP1B1 [2]; [10]): 1.00; fu [1]: 0.01; Cmax [3, 11]: 591 ng/mL
CO[C@H]1/C=C/O[C@@]2(C)Oc3c(C)c(O)c4c(O)c(c(/C=N/N5CCN(C)CC5)c(O)c4c3C2=O)NC(=O)/C(C)=C\C=C\[C@H](C)[C@H](O)[C@@H](C)[C@@H](O)[C@@H](C)[C@H](OC(C)=O)[C@@H]1C [Rifampin, rifampin] | 5.65 µM |  | 0.88 µM |  | R (ES) (OATP1B1 [2]; [10]): 8.56; Cmax [3, 11]: 10000 ng/mL
CC(C)(O)c1ccccc1CC[C@@H](SCC1(CC(=O)O)CC1)c1cccc(/C=C/c2ccc3ccc(Cl)cc3n2)c1 [Montelukast, montelukast sodium] | 2.04 µM | inhibited | 1.4 µM | inhibited | R (ES) (OATP1B1 [2]; [10]): 1.01; Cmax ([3]; in vivo, po, 75 mg): 542 ng/mL
C[C@]1(O)CC[C@H]2[C@@H]3CCC4=CC(=O)CC[C@]4(C)[C@@]3(F)[C@@H](O)C[C@@]21C [Fluoxymesterone] |  |  |  |  | Inhibition of OATP1B1-mediated uptake of cerivastatin (in words) (OATP1B1 [4]; [12]): no inhibitory effects; Inhibition of OATP1B1-mediated uptake of ES (in words) (OATP1B1 [5]; [12]): no inhibitory effects
COC(=O)[C@H](c1ccccc1Cl)N1CCc2sccc2C1 [Clopidogrel, Clopidogrel hydrogen sulfate] | 3.95 µM | inhibited |  | inhibited | R (CER) (OATP1B1 [2]; clopidogrel oral dose 600 mg): 1.63; Iin,max (OATP1B1 [2]; clopidogrel oral dose 600 mg): 124.40 µmol/L; Cmax ([3]; clopidogrel oral dose 600 mg): 31.4 ng/mL; Odds ratio for cerivastatin-induced rhabdomyolysis ([7]; clopidogrel use in the absence of gemfibrozil use, 95% CI 12.5-182): 47.8; Odds ratio for cerivastatin-induced rhabdomyolysis ([7]; clopidogrel use in the presence of gemfibrozil use, 95% CI 6.1-143): 29.6; inhibition at 5 min, 100 µmol/l (OATP1B1 [4]; human, probe [3H]-cerivastatin, 5 nmol/l): 52.7%; IC50 at 5 min (OATP1B1 [5]; human, probe [3H]-estrone-3-sulfate, 20 nmol/l): > 100 µM
COCc1c(C(C)C)nc(C(C)C)c(/C=C/[C@@H](O)C[C@@H](O)CC(=O)O)c1-c1ccc(F)cc1 [cerivastatin, [^3H]-Cerivastatin sodium salt] |  |  |  |  | Cerivastatin uptake transport rate ([6]; 5 nmol/l [3H]-CER): 0.02±0.01 pmol/mg of protein/min; Cerivastatin uptake, % of reference (OATP1B1 FS (974insGT)): 3.4 % of reference; Reduction in cerivastatin uptake (SLCO1B1 521T>C): 40%
CCOC(=O)C1=C(COCCN)NC(C)=C(C(=O)OC)C1c1ccccc1Cl (centres unmarked) [Amlodipine, amlodipine] | 35.5 µM |  | 39.6 µM |  | 
Cc1c(OCC(F)(F)F)ccnc1C[S+]([O-])c1nc2ccccc2[nH]1 (centres unmarked) [lansoprazole] |  | did not inhibit |  | did not inhibit | 
O=C(O)[C@H]1O[C@@H](OC(=O)[C@H](c2ccccc2Cl)N2CCc3sccc3C2)[C@H](O)[C@@H](O)[C@@H]1O [Clopidogrel acyl glucuronide, clopidogrel acyl glucuronide] |  | inhibited |  | inhibited | 
CCc1ccc(CCOc2ccc(CC3SC(=O)NC3=O)cc2)nc1 (centres unmarked) [Pioglitazone, pioglitazone hydrochloride] | 39.6 µM | inhibited | 6.8 µM | inhibited | R (ES) (OATP1B1 [2]; [10]): 1.01; Cmax ([3]; in vivo, po, 75 mg): 1500 ng/mL
CN(CCOc1ccc(CC2SC(=O)NC2=O)cc1)c1ccccn1 (centres unmarked) [Rosiglitazone, Rosiglitazone-potassium salt] | 43.4 µM |  | 4.27 µM |  | Cmax [3, 11]: 598 ng/mL
CCCCC1=NC2(CCCC2)C(=O)N1Cc1ccc(-c2ccccc2-c2nnn[nH]2)cc1 [irbesartan, Irbesartan] |  | did not inhibit |  | did not inhibit | 
Cc1ccc(-c2cc(C(F)(F)F)nn2-c2ccc(S(N)(=O)=O)cc2)cc1 [Celecoxib, celecoxib] |  | did not inhibit |  | did not inhibit | 

— PMC3894639 (Pharmacogenetics and genomics, 2013)
